The source of these data is ChEMBL document CHEMBL1143353, “Pyrazolo[1,5-a]-1,3,5-triazine as a purine bioisostere: access to potent cyclin-dependent kinase inhibitor (R)-roscovitine analogue” (J Med Chem, 2009).

For orientation: IC50 means the point on the concentration scale where inhibition reaches its midpoint.

Experiment [1] has as its target Cyclin-dependent kinase 5/CDK5 activator 1 (Homo sapiens, UniProt Q00535).
Description: Inhibition of human recombinant CDK5/p25 expressed in Escherichia coli
The test system of experiment [2] is SH-SY5Y. Put plainly: Antiproliferative activity against human SH-SY5Y cells after 48 hrs by MTS reduction assay. It counts as functional, cell-based. (Tetrazolium dyes change colour on reduction, which living cells bring about.)
The subject of experiment [3] is HEK293. Kind of experiment: Antiproliferative activity against human HEK293 cells after 48 hrs by MTS reduction assay. The note with it: HEK293, 48 h. It counts as cell-based.
The nature of experiment [4]: Inhibition of starfish oocytes CDK1/cyclin B. The settings on record: oocyte. On the set-up: species or system Marthasterias glacialis.
Experiment [5] has as its target Cyclin-dependent kinase 2 (Homo sapiens, UniProt P24941). Kind of experiment: Inhibition of human recombinant CDK2/cyclin A expressed in baculovirus-infected insect cells.
For experiment [6], the target named is CDK9/cyclin T1 (Homo sapiens, UniProt P50750). Put plainly: Inhibition of human recombinant CDK9/cyclin T expressed in baculovirus-infected insect cells.
The target in experiment [7] is Cyclin-dependent kinase 7/ cyclin H (Homo sapiens, UniProt P50613). Put plainly: Inhibition of human recombinant CDK7/cyclin H expressed in baculovirus-infected insect cells.

The structures appear in SMILES notation.

Sequence of Cyclin-dependent kinase 5/CDK5 activator 1 (Q00535 whole entry): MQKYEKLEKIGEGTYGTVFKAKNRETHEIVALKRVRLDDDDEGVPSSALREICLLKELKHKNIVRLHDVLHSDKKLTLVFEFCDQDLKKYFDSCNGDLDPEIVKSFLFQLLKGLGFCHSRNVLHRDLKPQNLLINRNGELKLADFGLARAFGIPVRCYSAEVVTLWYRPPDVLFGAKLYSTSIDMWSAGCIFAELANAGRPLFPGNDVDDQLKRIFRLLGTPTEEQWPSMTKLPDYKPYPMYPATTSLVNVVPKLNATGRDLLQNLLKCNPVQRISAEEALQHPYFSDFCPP
Sequence of Cyclin-dependent kinase 5/CDK5 activator 1 (Q15078 whole entry, further chain): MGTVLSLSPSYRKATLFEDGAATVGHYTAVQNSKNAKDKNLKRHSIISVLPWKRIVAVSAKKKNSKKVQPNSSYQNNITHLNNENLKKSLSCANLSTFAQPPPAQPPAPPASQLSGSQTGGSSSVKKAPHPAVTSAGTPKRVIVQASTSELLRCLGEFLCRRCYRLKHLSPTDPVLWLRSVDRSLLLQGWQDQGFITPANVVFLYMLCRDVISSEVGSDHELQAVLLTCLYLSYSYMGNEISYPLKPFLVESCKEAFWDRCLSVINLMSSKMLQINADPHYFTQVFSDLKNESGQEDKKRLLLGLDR
Sequence of Cyclin-dependent kinase 7/ cyclin H (P51946 whole entry): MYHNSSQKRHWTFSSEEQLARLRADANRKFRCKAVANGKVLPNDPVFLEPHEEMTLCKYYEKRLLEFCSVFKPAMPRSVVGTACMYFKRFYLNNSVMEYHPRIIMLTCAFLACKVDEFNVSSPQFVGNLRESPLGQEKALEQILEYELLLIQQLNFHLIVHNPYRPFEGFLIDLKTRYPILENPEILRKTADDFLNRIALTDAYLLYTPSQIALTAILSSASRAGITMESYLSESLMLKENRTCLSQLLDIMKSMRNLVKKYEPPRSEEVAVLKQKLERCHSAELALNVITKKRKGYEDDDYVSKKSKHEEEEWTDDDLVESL
Sequence of Cyclin-dependent kinase 7/ cyclin H (P50613 whole entry): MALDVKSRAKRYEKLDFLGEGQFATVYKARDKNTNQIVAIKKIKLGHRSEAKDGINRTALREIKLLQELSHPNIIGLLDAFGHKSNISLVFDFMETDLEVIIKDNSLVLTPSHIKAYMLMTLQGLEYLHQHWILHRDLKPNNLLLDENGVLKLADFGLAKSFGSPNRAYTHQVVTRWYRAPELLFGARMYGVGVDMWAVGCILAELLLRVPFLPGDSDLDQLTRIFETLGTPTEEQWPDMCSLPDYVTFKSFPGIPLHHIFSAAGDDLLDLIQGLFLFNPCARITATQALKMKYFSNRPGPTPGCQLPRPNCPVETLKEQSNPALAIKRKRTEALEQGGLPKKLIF
Sequence of CDK9/cyclin T1 (O60563 whole entry): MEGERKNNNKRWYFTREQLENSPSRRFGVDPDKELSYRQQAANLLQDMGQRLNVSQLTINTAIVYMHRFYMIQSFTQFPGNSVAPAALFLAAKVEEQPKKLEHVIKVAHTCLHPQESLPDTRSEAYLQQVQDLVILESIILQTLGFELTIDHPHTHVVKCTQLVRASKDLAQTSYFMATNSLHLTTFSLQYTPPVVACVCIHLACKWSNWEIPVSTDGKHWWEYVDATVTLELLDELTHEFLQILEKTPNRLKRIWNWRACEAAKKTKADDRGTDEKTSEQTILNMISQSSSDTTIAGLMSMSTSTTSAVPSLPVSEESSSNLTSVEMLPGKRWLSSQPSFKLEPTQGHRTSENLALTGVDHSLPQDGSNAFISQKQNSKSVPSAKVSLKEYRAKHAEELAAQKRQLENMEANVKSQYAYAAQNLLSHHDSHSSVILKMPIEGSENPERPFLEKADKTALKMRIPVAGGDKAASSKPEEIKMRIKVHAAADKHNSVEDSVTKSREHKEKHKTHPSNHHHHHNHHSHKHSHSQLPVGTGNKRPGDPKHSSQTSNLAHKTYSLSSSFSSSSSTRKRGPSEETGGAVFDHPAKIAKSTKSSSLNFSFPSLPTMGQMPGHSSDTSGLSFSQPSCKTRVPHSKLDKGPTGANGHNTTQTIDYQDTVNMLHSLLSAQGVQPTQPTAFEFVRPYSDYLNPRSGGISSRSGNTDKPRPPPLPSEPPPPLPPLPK
Sequence of CDK9/cyclin T1 (P50750 whole entry): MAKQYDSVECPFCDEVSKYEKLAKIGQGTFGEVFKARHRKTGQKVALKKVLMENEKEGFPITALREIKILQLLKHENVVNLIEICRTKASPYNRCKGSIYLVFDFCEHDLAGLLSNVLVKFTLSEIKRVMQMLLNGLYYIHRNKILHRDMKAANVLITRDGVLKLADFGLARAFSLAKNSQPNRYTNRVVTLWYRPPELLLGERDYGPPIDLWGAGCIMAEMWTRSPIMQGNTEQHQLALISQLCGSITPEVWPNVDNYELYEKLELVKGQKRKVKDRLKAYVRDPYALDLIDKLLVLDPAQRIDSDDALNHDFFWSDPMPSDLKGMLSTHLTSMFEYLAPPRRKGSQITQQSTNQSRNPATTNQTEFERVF

For `CC[C@@H](CO)Nc1nc(NCc2ccccc2)n2ncc(C(C)C)c2n1`, the values for the IC50 in experiment [1], in experiment [2] and in experiment [3] were 130 nM, 2000 nM and 7200 nM, respectively.
Take `CC[C@H](CO)Nc1nc(NCc2ccccc2)c2ncc(C(C)C)n2n1`: the IC50 in experiment [1] stood at 320 nM; in experiment [2] it was 15400 nM; in experiment [4], 400 nM; in experiment [5], 220 nM; in experiment [6] it was 200 nM; in experiment [7], 600 nM. In addition, the IC50 in experiment [3] was 26800 nM.
